Assay results: paper PMC12459614 (European journal of medicinal chemistry, 2025)
One block for each molecule: values may come before it.

Tests used:
hGPR17L [1] = molecular target: T1, hGPR17L (Homo sapiens, UniProt Q13304); experiment: Calcium mobilization assay; type: cell-based; settings: for antagonist activity at GPR17: calcium mobilization assay, data not shown
FGFR1 = FGFR1 (Homo sapiens, UniProt P11362); experiment: PathHunter U2OS FGFR1 functional counter assay; type: cell-based; settings: dose response
Chain of FGFR1 (P11362 22-822): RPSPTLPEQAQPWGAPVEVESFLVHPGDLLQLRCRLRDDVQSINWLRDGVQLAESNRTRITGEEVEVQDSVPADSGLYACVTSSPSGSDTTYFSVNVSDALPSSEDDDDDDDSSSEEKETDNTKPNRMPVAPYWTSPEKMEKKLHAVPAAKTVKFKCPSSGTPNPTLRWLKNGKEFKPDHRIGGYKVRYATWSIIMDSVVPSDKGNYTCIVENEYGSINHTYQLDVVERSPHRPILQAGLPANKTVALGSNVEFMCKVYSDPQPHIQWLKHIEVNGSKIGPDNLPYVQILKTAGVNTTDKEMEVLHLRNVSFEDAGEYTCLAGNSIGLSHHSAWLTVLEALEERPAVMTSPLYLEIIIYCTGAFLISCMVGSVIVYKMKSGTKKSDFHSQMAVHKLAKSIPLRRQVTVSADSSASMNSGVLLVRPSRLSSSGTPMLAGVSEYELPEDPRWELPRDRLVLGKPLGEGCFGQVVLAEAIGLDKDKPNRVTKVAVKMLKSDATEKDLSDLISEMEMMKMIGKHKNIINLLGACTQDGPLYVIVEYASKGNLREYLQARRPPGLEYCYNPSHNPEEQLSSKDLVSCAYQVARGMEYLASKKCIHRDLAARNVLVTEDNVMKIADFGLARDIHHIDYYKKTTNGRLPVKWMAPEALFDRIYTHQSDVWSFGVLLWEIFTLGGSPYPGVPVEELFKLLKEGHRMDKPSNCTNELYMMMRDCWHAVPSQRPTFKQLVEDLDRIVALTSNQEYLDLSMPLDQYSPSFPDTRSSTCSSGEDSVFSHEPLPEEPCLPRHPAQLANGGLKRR

GHSR1a = GHSR1a (Homo sapiens, UniProt Q92847); experiment: PathHunter U2OS GHSR1a β-arrestin counter assay; type: cell-based; settings: dose response
Chain of GHSR1a (Q92847 whole entry): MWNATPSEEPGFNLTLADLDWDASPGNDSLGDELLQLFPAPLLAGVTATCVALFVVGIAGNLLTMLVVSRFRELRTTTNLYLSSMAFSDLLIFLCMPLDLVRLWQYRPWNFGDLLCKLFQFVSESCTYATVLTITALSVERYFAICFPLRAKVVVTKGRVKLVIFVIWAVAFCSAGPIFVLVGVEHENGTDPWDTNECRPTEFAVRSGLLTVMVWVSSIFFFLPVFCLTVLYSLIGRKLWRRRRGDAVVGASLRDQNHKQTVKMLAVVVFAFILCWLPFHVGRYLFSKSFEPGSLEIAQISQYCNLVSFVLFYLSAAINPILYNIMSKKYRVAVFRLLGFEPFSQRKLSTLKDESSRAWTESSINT

hGPR17 = hGPR17 (Homo sapiens, UniProt Q13304); experiment: Cisbio HTRF β-arrestin recruitment assay, Schild analysis; type: cell-based; settings: Table 1
Chain of hGPR17 (Q13304 whole entry): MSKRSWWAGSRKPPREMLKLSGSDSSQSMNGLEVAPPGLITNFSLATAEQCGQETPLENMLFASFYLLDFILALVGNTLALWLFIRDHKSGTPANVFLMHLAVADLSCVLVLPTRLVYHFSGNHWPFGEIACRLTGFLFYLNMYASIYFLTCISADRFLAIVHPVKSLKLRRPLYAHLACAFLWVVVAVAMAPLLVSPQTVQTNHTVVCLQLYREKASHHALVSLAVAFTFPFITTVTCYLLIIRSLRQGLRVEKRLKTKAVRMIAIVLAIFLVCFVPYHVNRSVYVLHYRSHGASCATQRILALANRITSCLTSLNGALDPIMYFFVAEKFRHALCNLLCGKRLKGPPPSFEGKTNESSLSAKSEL

hGPR17L [2] = molecular target: T1, hGPR17L; experiment: cAMP signaling in GLUTag cells expressing hGPR17L; type: cell-based; settings: for attenuation of MDL-mediated inhibition of forskolin-stimulated cAMP: 10 μM compound, 100 nM MDL, 10 μM forskolin
hGPR17L [3] = molecular target: T1, hGPR17L; experiment: GLP-1 secretion assay in GLUTag cells expressing hGPR17L; type: cell-based; settings: 6.3 μM MDL; for attenuation of MDL-mediated inhibition of GLP-1 secretion: 10 μM compound, 10 μM forskolin and 10 μM IBMX
GPR17 (long isoform) = GPR17 (long isoform) (Homo sapiens, UniProt Q13304); experiment: PathHunter GPR17 β-arrestin recruitment assay; type: cell-based; settings: IC50 (antagonist mode), assay development; stimulated with 2 μM MDL (~EC80)
Chain of GPR17 (long isoform) (Q13304 whole entry, canonical isoform): as the sequence (Q13304 whole entry) above

hCysLTR2 = molecular target: T2, hCysLTR2 (Homo sapiens, UniProt Q9NS75); experiment: Calcium mobilization, Neuro-2a cells transiently transfected with hCysLTR2; type: cell-based; settings: 10 μM compound; 50 nM LTD4
T2 sequence (Q9NS75 1-346): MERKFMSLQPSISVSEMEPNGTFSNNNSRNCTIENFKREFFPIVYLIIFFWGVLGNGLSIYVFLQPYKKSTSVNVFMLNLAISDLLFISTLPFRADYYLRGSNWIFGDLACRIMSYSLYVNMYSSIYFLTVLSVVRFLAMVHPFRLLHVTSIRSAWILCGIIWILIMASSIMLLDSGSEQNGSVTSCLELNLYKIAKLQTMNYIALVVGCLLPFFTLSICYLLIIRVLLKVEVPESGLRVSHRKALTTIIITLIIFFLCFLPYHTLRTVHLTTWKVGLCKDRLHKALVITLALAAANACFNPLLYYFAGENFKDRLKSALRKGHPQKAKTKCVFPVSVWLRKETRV

GPR17 = settings: cited from earlier work
hGPR17L [4] = molecular target: T1, hGPR17L; experiment: cAMP accumulation HTRF assay
[5] = molecular target: N-methyl-D-aspartate (NMDA) receptors, glycine binding site; settings: cited from earlier work
hP2RY1 = hP2RY1 (Homo sapiens, UniProt P47900); experiment: Calcium mobilization, Neuro-2a cells transiently transfected with hP2RY1; type: cell-based; settings: 10 μM compound (300 μM MRS2179); 8 nM 2MeSADP
Chain of hP2RY1 (P47900 whole entry): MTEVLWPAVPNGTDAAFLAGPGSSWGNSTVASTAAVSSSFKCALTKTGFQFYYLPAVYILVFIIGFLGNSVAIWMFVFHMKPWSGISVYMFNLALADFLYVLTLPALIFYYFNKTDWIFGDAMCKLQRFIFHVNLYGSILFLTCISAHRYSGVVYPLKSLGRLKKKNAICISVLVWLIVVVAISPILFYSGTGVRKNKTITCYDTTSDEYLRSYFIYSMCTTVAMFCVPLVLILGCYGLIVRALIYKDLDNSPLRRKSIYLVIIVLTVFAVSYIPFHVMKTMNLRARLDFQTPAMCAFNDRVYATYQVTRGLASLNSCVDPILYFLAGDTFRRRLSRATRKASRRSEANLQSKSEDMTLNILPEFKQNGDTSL

hCysLTR1 = molecular target: T3, hCysLTR1 (Homo sapiens, UniProt Q9Y271); experiment: Calcium mobilization, Neuro-2a cells transiently transfected with hCysLTR1; type: cell-based; settings: 10 μM compound; 50 nM LTD4
T3 sequence (Q9Y271 1-337): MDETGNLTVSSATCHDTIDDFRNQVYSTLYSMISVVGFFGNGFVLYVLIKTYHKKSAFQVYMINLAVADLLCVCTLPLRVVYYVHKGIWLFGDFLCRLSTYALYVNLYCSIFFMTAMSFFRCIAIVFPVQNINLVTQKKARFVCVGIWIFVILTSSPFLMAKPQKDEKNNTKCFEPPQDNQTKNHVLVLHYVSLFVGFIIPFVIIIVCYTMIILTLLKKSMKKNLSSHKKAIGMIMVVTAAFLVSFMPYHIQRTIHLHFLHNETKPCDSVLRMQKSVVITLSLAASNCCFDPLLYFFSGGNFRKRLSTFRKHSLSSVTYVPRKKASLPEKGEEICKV

T1 sequence (Q13304 whole entry): as the sequence (Q13304 whole entry) above

Compound: COc1ccc(C(=O)NC2CCCc3c2[nH]c2c(Cl)cccc32)cc1OC (stereo not shown) [Compd 1, N-(8-Chloro-2,3,4,9-tetrahydro-1H-carbazol-1-yl)-3,4-dimethoxybenzamide]
Emax (hGPR17L [1]; 1321-N1, read-out: % Efficacy Avg ± SEM): 109 ± 3.38% | IC50 (hGPR17L [1]; Calcium Assay IC50(μM) Avg ± SEM, Table 2, reported only when efficacy ≥75%): 5.47 ± 0.3 µM | activity in FGFR1 functional counter assay (FGFR1): no activity | activity in GHSR1a β-arrestin counter assay (GHSR1a): no activity | β-arrestin Schild Slope (95% CI) (hGPR17): 1.13 (0.96 – 1.30) | attenuation of MDL-mediated inhibition of forskolin-stimulated cAMP (hGPR17L [2]): significantly attenuated | attenuation of MDL-mediated inhibition of GLP-1 secretion (hGPR17L [3]): significantly attenuated

Compound: O=C(O)CCc1c(C(=O)O)[nH]c2cc(Cl)cc(Cl)c12 [MDL, 3-(2-carboxyethyl)-4,6-dichloro-1H-indole-2-carboxylic acid]
EC50 (hGPR17L [1]): 0.28 µM | forskolin-stimulated cAMP after GPR17 activation (hGPR17L [2]; forskolin plus MDL): 3.5 ± 0.18 nM | inhibition of forskolin stimulated cAMP (hGPR17L [2]; forskolin plus MDL): 29 ± 3% | forskolin and IBMX-stimulated GLP-1 secretion after GPR17 activation (hGPR17L [3]): 50.1 ± 4.6 pM | reduction of forskolin and IBMX-stimulated GLP-1 secretion (hGPR17L [3]): 33 ± 8% | Ki [5]: 0.14 µM | EC50 (hGPR17L [4]): 0.0019 µM

Compound: CNc1ncnc2c1ncn2[C@H]1C[C@H](OP(=O)(O)O)[C@@H](COP(=O)(O)O)O1 [MRS2179]
block of P2RY1 activation (hP2RY1): antagonized

The next lines start with results.

IC50 (GPR17 (long isoform)): 8.2 µM | IC50 (hGPR17L [1]; IC50 (antagonist mode), assay development, stimulated with […] MDL (~EC80)): 8.1 µM | antagonist activity at GPR17 (hGPR17L [1]): full antagonist activity | block of CYSLTR2 activation (hCysLTR2): antagonized | attenuation of MDL-mediated inhibition of forskolin-stimulated cAMP (hGPR17L [2]): significantly attenuated | attenuation of MDL-mediated inhibition of GLP-1 secretion (hGPR17L [3]): significantly attenuated | IC50 (hGPR17L [4]; IC50 (antagonist mode), assay development, 30 nM MDL (EC80), 1 μM forskolin): 1.5 µM | IC50 (hGPR17L [4]; IC50, cAMP HTRF assay, purified re-purchased/re-synthesized compounds reassessed): 10 µM
Compound: O=C(O)c1ccc(OCCCc2ccc(OCCCCOC3CCCCC3)cc2)c(C(=O)NC2CCCC(C(=O)O)C2)c1 (stereo not shown) [HAMI]
IC50 (GPR17): single digit micromolar range | block of MDL-stimulated receptor activation of GPR17 (GPR17): completely

antagonist activity at GPR17 (hGPR17L [1]): full antagonist activity | block of CYSLTR1 activation (hCysLTR1): antagonized
Compound: O=C(Nc1cccc2c(=O)cc(-c3nnn[nH]3)oc12)c1ccc(OCCCCc2ccccc2)cc1 [pranlukast]
block of MDL-stimulated receptor activation of GPR17 (GPR17): completely
